Residues, ends and D or L forms follow the SMILES beside them. *: point of attachment. X1 = C=Cc1c(C)c2cc3nc(c(C)c4nc(cc5[nH]c(cc1[nH]2)c(C)c5CC)C(C)=C4C(=O)O)[C@@H](CCC(=O)*)[C@@H]3C
Experiments:
HCC70 cells [1] = conditions: 0~10 μM, dark
Experimental: In the dark state without light, the C-EGFR conjugate of the present invention was treated with 0˜10 μM concentration in HCC70 cells and cytotoxicity was evaluated.

HCC70 cells [2] = experiment: Cell absorption and fluorescence activity, confocal laser microscope; format: cell-based, human; conditions: 2 μM, 4 hours
From the text: In the 8-well Lab-Tek chamber, 5×10^3 PCA-SMC cells and 5×10^4 HCC70 cells were put in each well.

[3] = Fluorescence recovery by reducing agent (DTT) treatment; conditions: 5 mM DTT; for Increase of fluorescence intensity by DTT treatment: 4 hours, conjugate 2 μM in PBS, λEx 400 nm, λEm 665 nm
Experimental: The increase of fluorescence and reactive oxygen generation by reducing agent treatment was analyzed.
In the dithiothreitol (DTT) treatment sample, which is a reducing agent, 2 μM of a conjugate was mixed with 2 μM and 5 mM DTT, and the same amount of phosphate-buffered saline (PBS) was added to the buffer-treated group. The fluorescent intensity of the mixed solution (200 μl) was measured at intervals of 30 minutes for 4 hours (λEx. 400 nm, λEm. 665 nm).
Fluorescence recovery of the conjugate thus obtained by the reaction in response to a reducing agent present in a high concentration in cancer cells was performed and analyzed in the same manner as in Example 2. On the other hand, a sample prepared by dilution was put into a multifunctional microplate reader to obtain fluorescence spectrum (λEx. 400 nm, λEm. 620˜850 nm) results.
Meanwhile, in order to analyze the reactivity of the reducing agent/enzyme complex reaction type Ce4-CRRCW conjugate to the reducing agent, the conjugate was treated with reducing agents DTT 2 μM and 5 mM for 6 hours and put into a multifunctional microplate reader to obtain the fluorescence spectrum (λEx. 400 nm, λEm. 620˜850 nm) results. In order to analyze the reactivity to the enzyme, the conjugate was treated with cathepsins B, S, L, and S, or cathepsin B pretreated with cathepsin inhibitor E64 for 6 hours and put into a multifunctional microplate reader to obtain the fluorescence spectrum (λEx. 400 nm, λEm. 620˜850 nm) results. In order to analyze the reducing agent/enzyme complex reaction, 5 mM DTT and cathepsin B enzyme were treated together for 6 hours and put into a multifunctional microplate reader to obtain the fluorescence spectrum (λEx. 400 nm, λEm. 620˜850 nm) results.

[4] = Singlet oxygen generation (SOSG) under 670 nm laser after DTT treatment; conditions: for Increase of singlet oxygen generation: 5 mM DTT, 4 hours, 670 nm laser 50 mW/cm^2; for Generation of singlet oxygen in the quenched state: DTT not treated or 2 μM DTT
Experimental: Singlet oxygen generation (SOG) was measured by the following method. The C-EGFR conjugate thus obtained was dissolved in PBS to be 2 μM, and then DTT-treated samples were mixed with 2 μM and 5 mM DTT, respectively, and the same amount of PBS was mixed in the buffer-treated group. The mixed solution (200 μl) was cultured at 37° C. for 4 hours. Subsequently, oxygen-saturated PBS including concentrated singlet oxygen sensor green (SOSG) was mixed and the final SOSG concentration was adjusted to 5 μM. Fluorescence intensity change of the SOSG was periodically measured using a 670 nm continuous wavelength laser device during the light irradiation (light irradiation dose: 50 mW/cm^2) of the sample.
In addition, in order to confirm the generation of singlet oxygen (SOG), the same method as in Example 2 was performed and analyzed.

PCA-SMC cells [5] = experiment: Photodynamic therapy efficacy, CCK-8 assay after 670 nm laser; format: cell-based, human; conditions: 10 μM, 4 h treatment, washed
Experimental: In order to evaluate the efficacy of photodynamic therapy, PCA-SMC cells were put in a 1×10^3/well and MDA-MB-231 cells and MDA-MB-468 cells were put as much as 1×10^4/well in a 96-well plate, respectively, and were cultured for 24 hours to allow the cells to be adhered well. L-EGFR conjugates were prepared at concentrations of 0.1 μM, 0.5 μM, 1 μM, 2 μM, 5 μM and 10 μM, respectively, treated with cells, and then cultured for 4 hours. Thereafter, the conjugate that had not been absorbed into cells was washed and removed, and then irradiated with a 670 nm laser at an irradiation dose density of 50 mW/cm^2 for 6 minutes and 40 seconds. Thereafter, after further culturing in an incubator until the next day, the cytotoxicity was assessed by CCK-8 assay.

HCC70 cells [6] = experiment: Real-time observation of fluorescence quenching and recovery without washing (live cell imaging); format: cell-based, human; conditions: no washing, images over 4 hours
Experimental: An experiment was conducted to verify whether a C-EGFR conjugate of the present invention in which fluorescence signal generation has been quenched from outside the target cell strongly generates fluorescence after the absorption of the C-EGFR conjugate into target cells. EGFR-overexpressing HCC70 cells were treated with the C-EGFR conjugate and free photosensitizer (Ce4), and then fluorescence images were obtained at regular time intervals without washing. The detailed method is provided as follows.
The existing medium was then replaced with 0.5 ml of fresh medium including the conjugate and the free photosensitizer. Thereafter, each of the near infrared light fluorescence images (λEx. 640±15 nm, λEm. 690±25 nm) were obtained at intervals of 15 minutes for 4 hours using the Live Cell Imaging System (Axio Observer Z1, Carl Zeiss, Germany) without washing the cells.

PCA-SMC cells [7] = experiment: Cell absorption and fluorescence activity, confocal laser microscope; format: cell-based, human; conditions: 2 μM, 4 hours
Experimental: (§1) Thereafter, the existing medium was replaced with 200 μl of a fresh medium in which 2 μM the conjugate was dissolved, and the cells were cultured for 30 minutes, 1 hour, and 4 hours, respectively.

trypsin enzyme = conditions: after 4 hours, 37° C., PBS, λEm 665 nm
Experimental: 1 nmol of each of Ce4-RRWW and Ce4-RRWWW thus obtained was prepared and dissolved in a PBS solution. The trypsin enzyme was mixed with each […] of each conjugate and fluorescence changes were observed over time at 37° C.

KB cells = conditions: 2 μM
Experimental: KB cells per well were put in a 4-well Lab-Tek chamber per 2×10^5, and were cultured for 24 hours to allow the cells to be absorbed well. Thereafter, the existing medium was replaced with 500 μl of fresh medium in which the Ce4-RRW conjugate (2 μM) was dissolved, and then the cells were cultured for 4 hours.
Finally, the cells were washed three times with the culture medium, and then a near-infrared fluorescence image (λEx. 405 nm, λEm. 625˜754 nm) was obtained using a confocal laser microscope.
Experiments were performed to determine the intracellular location of the Ce4-RRW of the present invention. In the 8-well Lab-Tek chamber, 5×10^4 KB cells were put in each well. The cells were cultured for 24 hours to allow the cells to be absorbed well, and then 2 μM Ce4-RRW was added and cultured for 4 hours, followed by washing three times. Thereafter, after replacing the existing medium with fresh medium including 100 nM LysoTracker Blue DND-22 dye, the cells were cultured for 45 minutes. Fluorescent images of the Ce4-RRW (λEx. 405 nm, λEm. 625˜754 nm) and LysoTracker (λEx. 405 nm, λEm. 411˜497 nm) were obtained for these samples using confocal microscopy.

[8] = 2 μM, PBS including 10% FBS, room temperature, 4 hours
Experimental: The L-EGFR conjugate of the present invention was mixed with PBS including 10% […], fetal bovine serum (FBS, Gibco, USA), respectively, and cultured, and the stability in the serum was evaluated. The final concentration of the conjugate in solution was adjusted to 2 μM. The solution was allowed to react at room temperature for 4 hours and then put in a multifunctional microplate reader (Safire 2, Tecan, Switzerland) to obtain a fluorescence spectrum (λEx. 400 nm) result.
The Ce4-RRW conjugate of the present invention was mixed with PBS including 10% of FBS and cultured to evaluate the stability in serum. The final concentration of the conjugate in solution was adjusted to 2 μM. The solution was allowed to react at room temperature for 4 hours and then put in a multifunctional microplate reader to obtain a fluorescence spectrum (λEx. 610 nm, λEm. 620˜850 nm) result.

MDA-MB-468 cells [9] = conditions: 0~10 μM, dark
Experimental: In the dark state without light, the L-EGFR conjugate of the present invention was added to MDA-MB-468 cells at a concentration of 0˜10 μM and cytotoxicity was evaluated.

MDA-MB-468 cells [10] = experiment: Cell absorption and fluorescence activity, confocal laser microscope; format: cell-based, human; conditions: 2 μM
Experimental: as §1
L-EGFR conjugate was treated at a concentration of 2 μM and was cultured for 4 hours, followed by washing three times.

MDA-MB-231 cells = experiment: as above; format: cell-based, human; conditions: 2 μM
Experimental: as §1

Compound	Increase of fluorescence intensity by DTT treatment [3]	Increase of singlet oxygen generation [4]	Generation of singlet oxygen in the quenched state [4]	Cells alive after photodynamic therapy (PCA-SMC cells [5])	Fluorescence image without washing (HCC70 cells [6])	Intracellular fluorescence signal / cell entry (PCA-SMC cells [7])	Increase of fluorescence versus initial fluorescence after trypsin treatment (trypsin enzyme)	Effect of serum protein on fluorescence of the conjugate [8]	also measured
C=Cc1c(C)c2cc3nc(c(C)c4[nH]c(cc5nc(cc1[nH]2)C(C)=C5CC)c(C)c4C(=O)O)[C@@H](CCC(=O)NCCOCCOCC(=O)N[C@H]1CSSC[C@@H](C(=O)N[C@@H](Cc2ccc(O)cc2)C(=O)N[C@@H](Cc2c[nH]cn2)C(=O)N[C@@H](Cc2c[nH]c4ccccc24)C(=O)N[C@@H](Cc2ccc(O)cc2)C(=O)NCC(=O)N[C@@H](Cc2ccc(O)cc2)C(=O)N[C@H](C(=O)N2CCC[C@H]2C(=O)N[C@@H](CCC(N)=O)C(=O)N[C@@H](CC(N)=O)C(=O)N[C@H](C(=O)N[C@H](C(=O)O)[C@@H](C)CC)C(C)C)[C@@H](C)O)NC1=O)[C@@H]3C [C-EGFR]	3.4 times	5 times	inhibited	at least 70%	fluorescence signal generation is inhibited from outside the cell	fluorescence signals were hardly exhibited	–	–	Cytotoxicity without light irradiation (HCC70 cells [1]): did not show cytotoxicity; Intracellular fluorescence signal (HCC70 cells [2]): strong fluorescence signals; Intracellular location (LysoTracker co-staining) (HCC70 cells [2]): migrated into the lysosomes; Time to fluorescence recovery after the start of the reaction [3]: ≤ 30 min
C=Cc1c(C)c2cc3nc(c(C)c4nc(cc5[nH]c(cc1[nH]2)c(C)c5CC)C(C)=C4C(=O)O)[C@@H](CCC(=O)N[C@@H](CCCNC(=N)N)C(=O)N[C@@H](CCCNC(=N)N)C(=O)N[C@@H](Cc1c[nH]c2ccccc12)C(=O)N[C@@H](Cc1c[nH]c2ccccc12)C(=O)N[C@@H](Cc1c[nH]c2ccccc12)C(=O)O)[C@@H]3C [Ce4-RRWWW] (X1-RRWWW-OH)	–	–	–	–	–	–	4.3 times	–	–
C=Cc1c(C)c2cc3nc(c(C)c4nc(cc5[nH]c(cc1[nH]2)c(C)c5CC)C(C)=C4C(=O)O)[C@@H](CCC(=O)N[C@@H](CCCNC(=N)N)C(=O)N[C@@H](CCCNC(=N)N)C(=O)N[C@@H](Cc1c[nH]c2ccccc12)C(=O)N[C@@H](Cc1c[nH]c2ccccc12)C(=O)O)[C@@H]3C [Ce4-RRWW]	–	–	–	–	–	–	about 1.6 times	–	–
C=Cc1c(C)c2cc3nc(c(C)c4nc(cc5[nH]c(cc1[nH]2)c(C)c5CC)C(C)=C4C(=O)O)[C@@H](CCC(=O)N[C@@H](CCCNC(=N)N)C(=O)N[C@@H](CCCNC(=N)N)C(=O)N[C@@H](Cc1c[nH]c2ccccc12)C(=O)O)[C@@H]3C [Ce4-RRW]	–	–	–	–	–	–	–	did not affect the fluorescence	Intracellular fluorescence signal (KB cells): strong fluorescence signal; Intracellular location (LysoTracker co-staining) (KB cells; 4 hours): located in the lysosome
C=Cc1c(C)c2cc3nc(c(C)c4[nH]c(cc5nc(cc1[nH]2)C(C)=C5CC)c(C)c4C(=O)O)[C@@H](CCC(=O)NCCOCCOCC(=O)N[C@@H](CSSC[C@H](N)C(=O)N[C@@H](Cc1ccc(O)cc1)C(=O)N[C@@H](Cc1c[nH]cn1)C(=O)N[C@@H](Cc1c[nH]c2ccccc12)C(=O)N[C@@H](Cc1ccc(O)cc1)C(=O)NCC(=O)N[C@@H](Cc1ccc(O)cc1)C(=O)N[C@H](C(=O)N1CCC[C@H]1C(=O)N[C@@H](CCC(N)=O)C(=O)N[C@@H](CC(N)=O)C(=O)N[C@H](C(=O)N[C@H](C(=O)O)[C@@H](C)CC)C(C)C)[C@@H](C)O)C(=O)O)[C@@H]3C [L-EGFR]	2.5 times	2 times	suppressed	at least 70%	–	did not enter the cell even after culturing for 4 hours	–	did not affect the fluorescence intensity	Cytotoxicity without light irradiation (MDA-MB-468 cells [9]): did not show cytotoxicity; Fluorescence recovered within 5 minutes after the start of the reaction [3]: at least 90%; Fluorescence signal (MDA-MB-468 cells [10]; 30 minutes): strong fluorescence signal on the cell surface; Intracellular location (LysoTracker co-staining) (MDA-MB-468 cells [10]; 4 hours): activated in the lysosome; Intracellular fluorescence signal with culture time (MDA-MB-231 cells; 30 minutes to 4 hours): fluorescence intensity was increased with increasing culture time; Intracellular fluorescence signal (MDA-MB-231 cells; first 30 minutes): fluorescence was almost not observed
chlorin e4 [free photosensitizer, reference compound]	–	–	–	–	position of cancer cells cannot be distinguished	–	–	–	–

— patent publication US11813332B2, “Photosensitizer-peptide conjugate comprising degradable linker, and composition for photodynamic diagnosis or treatment comprising same” (NATIONAL CANCER CENTER, priority 2016, dated 2023)
